Where a SMILES comes first, the peptide text is derived from it.
What was measured:
[1] = target: mushroom tyrosinase; experiment: Tyrosinase inhibition assay; assay type: biochemical
Procedure: To assess tyrosinase inhibitory activity, serial dilutions of the synthesized peptide and the positive control, β-arbutin, were prepared. In a 96-well plate, 10 μL of sample solution was mixed with 110 μL of 0.10 M sodium phosphate buffer (pH 6.5), followed by the addition of 10 μL of mushroom tyrosinase solution (1500 U/mL) and 20 μL of 1.50 mM L-tyrosine. The reaction mixture was then incubated at 37 °C for 10 min. The absorbance was measured at an appropriate wavelength (475 nm) using a microplate reader and the percentage of tyrosinase inhibition was calculated using Equation (3).
Tyrosinase inhibition (%):(3) 100−b−b^′/a−a^′×100
(§1) a: Absorbance after reaction of stock solution.
(§2) b: Absorbance after reaction of sample solution.
a′, b′: Absorbance measured by substituting the buffer for mushroom tyrosinase.

[2] = tested on: type I procollagen; experiment: Type I procollagen expression (ELISA) in human fibroblasts; assay type: cell-based
Procedure: ELISA was performed using a Type I Procollagen C-Peptide EIA Kit. Antibody-POD Conjugate solution (100 μL/well) was dispensed into the provided well strips, followed by the addition of 20 μL/well of standard solution or sample. After mixing, the plates were incubated at 37 °C for 3 h. Following incubation, the supernatants were discarded and wells were washed four times with wash buffer. Subsequently, 100 μL/well of Substrate Solution (TMBZ) was added and incubated at room temperature for 15 min, after which 100 μL/well of stop solution was added to terminate the reaction. Absorbance was measured at 450 nm using a multiplate reader. The expression levels of type I procollagen were compared and stimulation rate was calculated according to Equation (5).
Type I Procollagen Expression Promotion Rate (%):(5) 100−b/a×100
(§3) a: Expression of the corrected untreated group.
(§4) b: Expression of the corrected sample treatment group.
(§5) Protein content was measured using a Pierce BCA Protein Assay kit. After cell culture, 20 μL of the culture medium was mixed with 200 μL of the Pierce BCA Protein Assay reagent mixture and incubated at 37 °C for 30 min. The absorbance was then measured at 570 nm. The protein concentration was determined using an Albumin Standard as a reference.

[3] = tested on: MMP-1; experiment: UV-induced MMP-1 expression inhibition (ELISA) in human dermal fibroblasts CCD-986sk; assay type: cell-based
Procedure: To evaluate the inhibitory effect on MMP-1 expression, TGF-β1 (10 ng/mL) was used as the positive control. CCD-986sk cells were seeded into 24-well culture plates at a density of 1.5 × 10^4 cells/well and cultured for 24 h in IMDM supplemented with 10% FBS and 1% penicillin–streptomycin. The cells were then incubated in serum-free IMDM for 6 h to induce starvation, washed with 1 mL of DPBS, and irradiated with UV (5 J/cm^2). UV irradiation (5 J/cm^2) was performed under non-cytotoxic conditions previously reported to induce MMP-1 expression. The test samples were diluted in serum-free IMDM, applied to the cells, and incubated for 48 h.
MMP-1 Expression Inhibition (%):(4) 100−b/a×100
as §3, §4, §5

[4] = DPPH radical-scavenging assay
Procedure: To assess the antioxidant activity of the test samples, serial dilutions of the synthesized peptides were prepared, using ascorbic acid as a positive control. Each reaction mixture consisted of 12.5 μL of the sample solution, 50 μL of ethanol, and 62.5 μL of 0.10 mM DPPH solution. The mixtures were incubated for 30 min at 4 °C in the dark. After the reaction, the absorbance was measured at 520 nm using a multimode microplate reader. The free radical-scavenging activity (%) was calculated using Equation (2).
Radical-scavenging activity (%):(2) 100−b−b^′/a−a^′×100
as §1, §2
a′, b′: Absorbance measured by substituting the buffer for 0.10 mM DPPH.

| tyrosinase inhibition rate ([1]; 800 μg/mL, L-tyrosine substrate, pH 6.5, 37 °C, 10 min, 475 nm) [%] | tyrosinase inhibition, concentration dependence ([1]; 12.50 to 800 μg/mL, p < 0.05) | IC50 ([1]; n = 3, L-tyrosine substrate, pH 6.5, 37 °C, 10 min, 475 nm, molar value printed beside 104.2 µg/mL) [µM] | tyrosinase inhibition IC50 ([1]; n = 3, L-tyrosine substrate, pH 6.5, 37 °C, 10 min, 475 nm, tested 12.50 to 800 μg/mL) [µg/mL] | SMILES | tyrosinase inhibition IC50 (positive control) ([1]; tested 31.25 to 500 μg/mL, L-tyrosine substrate, pH 6.5, 37 °C, 10 min, 475 nm) [µg/mL] | tyrosinase inhibition compared with β-arbutin ([1]; comparable concentrations) | type I procollagen expression, higher than positive control TGF-β1 ([2]; 400 μg/mL, compared with TGF-β1) | increase in type I procollagen expression vs untreated control ([2]; 400 μg/mL, human fibroblasts, ELISA (Procollagen Type I C-Peptide EIA), p < 0.05) | type I procollagen increase compared with TGF-β1 ([2]; 400 µg/mL, same experimental conditions) | type I procollagen expression ([2]; 100–400 μg/mL, p < 0.05) | inhibition of MMP-1 expression ([3]; 400 μg/mL, UV 5 J/cm^2, 48 h, CCD-986sk, ELISA, vs UV-treated control) [%] | MMP-1 inhibition compared with TGF-β1 ([3]; 400 µg/mL, same experimental conditions, TGF-β1 10 ng/mL) | UV-induced MMP-1 expression ([3]; 200–400 μg/mL, vs UV-treated control, p < 0.05) | MMP-1 expression inhibition IC50 ([3]; n = 5, UV 5 J/cm^2, 48 h, CCD-986sk, ELISA) [µg/mL] | DPPH radical scavenging rate ([4]; 200 μg/mL, 30 min at 4 °C in the dark, 520 nm) [%] | DPPH scavenging, concentration dependence ([4]; 3.13 to 200 μg/mL, p < 0.05) | DPPH radical scavenging activity ([4]; concentrations above 25 μg/mL, 30 min at 4 °C in the dark, 520 nm) |
| --- | --- | --- | --- | --- | --- | --- | --- | --- | --- | --- | --- | --- | --- | --- | --- | --- | --- |
| – | – | – | – | OC[C@H]1O[C@@H](Oc2ccc(O)cc2)[C@H](O)[C@@H](O)[C@@H]1O [β-arbutin, reference compound] | 160.12 | – | – | – | – | – | – | – | – | – | – | – | – |
| 97.79 | concentration-dependent inhibition | 184 ± 9.4 | 104.2 ± 5.3 | N=C(N)NCCC[C@@H]1NC(=O)[C@H](CO)NC(=O)CNC(=O)[C@H](Cc2ccc(O)cc2)NC(=O)[C@H](CS)NC1=O [CR5, cyclic CYGSR] (cyclo(CYGSR)) | – | stronger tyrosinase inhibition than β-arbutin | approximately 30.12% | approximately 44.68% | stronger efficacy than TGF-β1 | promoted type I procollagen expression in a concentration-dependent manner | 73.55 | stronger efficacy than TGF-β1 | significantly reduced MMP-1 expression | 261.3 ± 12.0 | 83.18 | concentration-dependent scavenging effects | more than 50% |
